Experimental data from patent US6914045B2, “Glycopeptide antibiotics” (Wyeth Holdings Corporation, priority 2001, dated 2005).
Converted amounts (≈) assume the structure as drawn.

Tests used:
Escherichia coli = experiment: in vitro antibacterial evaluation, MIC by broth dilution; assay type: cell-based; conditions: 18 hours at 35° C.; for MIC Escherichia coli (GC 4560): strain GC 4560
In short: (§1)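 Step 1: dilute antibiotic across 64-0.06 μg/mL in Muller-Hinton II […]. Step 2: inoculate at 5×10^5 CFU/mL.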

Staphylococcus sp. = experiment: as above; assay type: cell-based; conditions: broth dilution, 18 hours at 35° C.
In short: as §1

Enterococcus sp. = experiment: as above; assay type: cell-based; conditions: broth dilution, 18 hours at 35° C.; for MIC Enterococcus faecalis (ATCC 29212): strain ATCC 29212; for MIC Enterococcus faecalis (GC 2242): strain GC 2242; for MIC Enterococcus faecium (GC 2243): strain GC 2243; for MIC Enterococcus faecalis (GC 2691): strain GC 2691; for MIC Enterococcus faecalis (GC 3059): strain GC 3059; for MIC Enterococcus faecalis (GC 4552): strain GC 4552; for MIC Enterococcus faecalis (GC 4553): strain GC 4553; for MIC Enterococcus faecalis (GC 4554): strain GC 4554; for MIC Enterococcus faecium (GC 4556): strain GC 4556; for MIC Enterococcus faecium (GC 4557): strain GC 4557; for MIC Enterococcus avium (GC 4558): strain GC 4558; for MIC Enterococcus faecalis (GC 6189): strain GC 6189
In short: as §1

Streptococcus sp. = experiment: as above; assay type: cell-based; conditions: broth dilution, 18 hours at 35° C.; for MIC Streptococcus pneumoniae (ATCC 6301): strain ATCC 6301; for MIC Streptococcus pneumoniae (GC 1894): strain GC 1894; for MIC Streptococcus pneumoniae (GC 4565): strain GC 4565
In short: as §1

[1] = anatomic pathology (histopathology of heart and kidney) in mice; assay type: in vivo; conditions: CD-1 mice, 20 mg/kg intravenously daily for 9 days, necropsy day 10, microscopic histopathology
Method: Samples of tissues from necropsied mice were formalin-fixed, paraffin-embedded, sectioned, stained with hematoxylin and eosin, and examined microscopically. Histopathologic findings were recorded. These findings were subjectively graded on a scale corresponding to slight, mild, moderate, marked and severe as compared to untreated controls.

[2] = clinical pathology (serum clinical chemistry) in mice; assay type: in vivo; conditions: CD-1 mice, 20 mg/kg intravenously daily for 9 days, sera day 10
Method: 20-day-old CD-1 mice were divided into a vehicle control group (5 mice) and a treatment group (5 mice). Samples of glycopeptide antibiotics were administered at 20 mg/kg intravenously daily for 9 days.

[3] = test system: Streptococcus pneumoniae (GC 1894); experiment: acute lethal infection in mice; assay type: in vivo; conditions: female CD-1 mice, intraperitoneal challenge, intravenous 30 min. after infection, 7 day survival
In short: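 ED50 from 7 day survival ratios pooled over 3 separate tests. Female CD-1 mice, 20+/−2 gm, ip bacterial challenge (trypticase soy broth or hog gastric mucin) lethal to untreated controls in 24-48 hr; iv dosing 30 min after infection in saline or 5% dextrose, n=5/dose.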

CC(c1ccccc1)C1NC(=O)CNC(=O)C(CO)NC(=O)C(C(O)C2CNC(=N)N2C2OC(CO)C(O)C(O)C2O)NC(=O)C(C(O)C2CNC(=N)N2)NC(=O)C(Cc2ccc(OC3OC(CO)C(OC4OC5COC6(OC5C(O)C4O)C4CC5CC(C4)CC6C5)C(O)C3O)cc2)NC1=O (stereo not drawn) [Example 105, Cyclo[glycyl-β-methylphenylalanyl-O-[4-O-[4,6-O-(2-adamantylidene)hexopyranosyl]hexopyranosyl]tyrosyl-3-(2-iminoimidazolidin-4-yl)seryl-3-(3-hexopyranosyl-2-iminoimidazolidin-4-yl)serylseryl]]
MIC Escherichia coli (GC 4559) (Escherichia coli; strain GC 4559): 32 µg/mL (≈ 22.4 µM) | MIC Escherichia coli (GC 4560) (Escherichia coli): 0.5 to 2 µg/mL | MIC Coagulase Negative Staphylococcus (GC 4547) (Staphylococcus sp.): 0.5 to 1 µg/mL | MIC Coagulase Negative Staphylococcus (GC 4548) (Staphylococcus sp.): <0.5 to 1 µg/mL | MIC Coagulase Negative Staphylococcus (GC 4549) (Staphylococcus sp.): 0.5 to 1 µg/mL | MIC Coagulase Negative Staphylococcus (GC 4551) (Staphylococcus sp.): <0.5 to 1 µg/mL | MIC Coagulase Negative Staphylococcus (GC 6257) (Staphylococcus sp.): 0.5 to 1 µg/mL | MIC Staphylococcus aureus (ATCC 29213) (Staphylococcus sp.): <0.5 to 1 µg/mL | MIC Staphylococcus aureus (GC 1131) (Staphylococcus sp.): 0.25 to 1 µg/mL | MIC Staphylococcus aureus (GC 3051) (Staphylococcus sp.): 0.5 to 1 µg/mL | MIC Staphylococcus aureus (GC 3053) (Staphylococcus sp.): 1 to 2 µg/mL | MIC Staphylococcus aureus (GC 4541) (Staphylococcus sp.): <0.5 to 1 µg/mL | MIC Staphylococcus aureus (GC 4542) (Staphylococcus sp.): 0.5 to 1 µg/mL | MIC Staphylococcus aureus (GC 4544) (Staphylococcus sp.): 0.25 to 2 µg/mL | MIC Staphylococcus aureus (GC 4545) (Staphylococcus sp.): <0.5 to 1 µg/mL | MIC Staphylococcus aureus-SMITH (GC 4543) (Staphylococcus sp.): 0.25 to 1 µg/mL | MIC Staphylococcus haemolyticus (GC 4546) (Staphylococcus sp.): <0.5 to 1 µg/mL | MIC Staphylococcus haemolyticus (GC 4546) (Staphylococcus sp.; strain GC 4546): <0.5 to 1 µg/mL | MIC Coagulase Negative Staphylococcus (GC 4547) (Staphylococcus sp.; strain GC 4547): 0.5 to 1 µg/mL | MIC Coagulase Negative Staphylococcus (GC 4548) (Staphylococcus sp.; strain GC 4548): <0.5 to 1 µg/mL | MIC Coagulase Negative Staphylococcus (GC 4549) (Staphylococcus sp.; strain GC 4549): 0.5 to 1 µg/mL | MIC Coagulase Negative Staphylococcus (GC 4551) (Staphylococcus sp.; strain GC 4551): <0.5 to 1 µg/mL | MIC Coagulase Negative Staphylococcus (GC 6257) (Staphylococcus sp.; strain GC 6257): 0.5 to 1 µg/mL | MIC Enterococcus faecalis (ATCC 29212) (Enterococcus sp.): 1 to 2 µg/mL | MIC Enterococcus faecalis (GC 2242) (Enterococcus sp.): 0.5 to 2 µg/mL | MIC Enterococcus faecium (GC 2243) (Enterococcus sp.): 1 to 2 µg/mL | MIC Enterococcus faecalis (GC 2691) (Enterococcus sp.): 1 to 2 µg/mL | MIC Enterococcus faecalis (GC 3059) (Enterococcus sp.): 1 to 2 µg/mL | MIC Enterococcus faecalis (GC 4552) (Enterococcus sp.): 1 to 2 µg/mL | MIC Enterococcus faecalis (GC 4553) (Enterococcus sp.): 1 to 2 µg/mL | MIC Enterococcus faecalis (GC 4554) (Enterococcus sp.): 1 to 2 µg/mL | MIC Enterococcus faecium (GC 4556) (Enterococcus sp.): 0.5 to 2 µg/mL | MIC Enterococcus faecium (GC 4557) (Enterococcus sp.): 1 to 2 µg/mL | MIC Enterococcus avium (GC 4558) (Enterococcus sp.): 1 to 2 µg/mL | MIC Enterococcus faecalis (GC 6189) (Enterococcus sp.): 1 to 2 µg/mL | MIC Streptococcus pneumoniae (ATCC 6301) (Streptococcus sp.): <0.06 µg/mL | MIC Streptococcus pneumoniae (GC 1894) (Streptococcus sp.): <0.06 µg/mL | MIC Streptococcus pneumoniae (GC 4565) (Streptococcus sp.): <0.06 µg/mL | Anatomical Pathology (Day 10), Heart [1]: +++ | Anatomical Pathology (Day 10), Kidney [1]: +++ | Clinical Chemistry (Day 10) % of Control, ALT [2]: +480% | Clinical Chemistry (Day 10) % of Control, BUN [2]: +35% | median effective dose (ED50), Streptococcus pneumoniae (GC 1894) [3]: 0.04 mg/kg

N=C1NCC(C(O)C2NC(=O)C(Cc3ccc(OC4OC(CO)C(OC5OC6COC7(OC6C(O)C5O)C5CC6CC(C5)CC7C6)C(O)C4O)cc3)NC(=O)C(CC3CCCCC3)NC(=O)CNC(=O)C(CO)NC(=O)C(C(O)C3CNC(=N)N3C3OC(CO)C(O)C(O)C3O)NC2=O)N1 (stereo not drawn) [Example 106, Cyclo[3-cyclohexylalanyl-O-[4-O-[4,6-O-(2-adamantylidene)hexopyranosyl]hexopyranosyl]-tyrosyl-3-(2-iminoimidazolidin-4-yl)seryl-3-(3-hexopyranosyl-2-iminoimidazolidin-4-yl)-serylserylglycyl]]
MIC Escherichia coli (GC 4560) (Escherichia coli): 0.5 to 2 µg/mL | MIC Coagulase Negative Staphylococcus (GC 4547) (Staphylococcus sp.): 0.5 to 2 µg/mL | MIC Coagulase Negative Staphylococcus (GC 4548) (Staphylococcus sp.): 0.25 to 1 µg/mL | MIC Coagulase Negative Staphylococcus (GC 4549) (Staphylococcus sp.): <0.12 to 1 µg/mL | MIC Coagulase Negative Staphylococcus (GC 4551) (Staphylococcus sp.): 0.25 to 1 µg/mL | MIC Coagulase Negative Staphylococcus (GC 6257) (Staphylococcus sp.): 0.25 µg/mL (≈ 0.176 µM) | MIC Staphylococcus aureus (ATCC 29213) (Staphylococcus sp.): 0.5 to 2 µg/mL | MIC Staphylococcus aureus (GC 1131) (Staphylococcus sp.): 0.5 to 2 µg/mL | MIC Staphylococcus aureus (GC 3051) (Staphylococcus sp.): 0.5 to 2 µg/mL | MIC Staphylococcus aureus (GC 3053) (Staphylococcus sp.): 0.5 to 2 µg/mL | MIC Staphylococcus aureus (GC 4541) (Staphylococcus sp.): 0.5 to 2 µg/mL | MIC Staphylococcus aureus (GC 4542) (Staphylococcus sp.): 0.25 to 1 µg/mL | MIC Staphylococcus aureus (GC 4544) (Staphylococcus sp.): 0.25 to 2 µg/mL | MIC Staphylococcus aureus (GC 4545) (Staphylococcus sp.): 0.5 to 2 µg/mL | MIC Staphylococcus aureus-SMITH (GC 4543) (Staphylococcus sp.): 0.25 to 1 µg/mL | MIC Staphylococcus haemolyticus (GC 4546) (Staphylococcus sp.): 0.5 to 1 µg/mL | MIC Staphylococcus haemolyticus (GC 4546) (Staphylococcus sp.; strain GC 4546): 0.5 to 1 µg/mL | MIC Coagulase Negative Staphylococcus (GC 4547) (Staphylococcus sp.; strain GC 4547): 0.5 to 2 µg/mL | MIC Coagulase Negative Staphylococcus (GC 6257) (Staphylococcus sp.; strain GC 6257): 0.25 µg/mL (≈ 0.176 µM) | MIC Enterococcus faecalis (ATCC 29212) (Enterococcus sp.): 0.5 to 2 µg/mL | MIC Enterococcus faecalis (GC 2242) (Enterococcus sp.): 0.5 to 2 µg/mL | MIC Enterococcus faecium (GC 2243) (Enterococcus sp.): 0.5 to 2 µg/mL | MIC Enterococcus faecalis (GC 2691) (Enterococcus sp.): 1 to 2 µg/mL | MIC Enterococcus faecalis (GC 3059) (Enterococcus sp.): 1 to 2 µg/mL | MIC Enterococcus faecalis (GC 4552) (Enterococcus sp.): 1 to 2 µg/mL | MIC Enterococcus faecalis (GC 4553) (Enterococcus sp.): 1 to 2 µg/mL | MIC Enterococcus faecalis (GC 4554) (Enterococcus sp.): 1 to 2 µg/mL | MIC Enterococcus faecium (GC 4556) (Enterococcus sp.): 0.5 to 2 µg/mL | MIC Enterococcus faecium (GC 4557) (Enterococcus sp.): 0.5 to 2 µg/mL | MIC Enterococcus avium (GC 4558) (Enterococcus sp.): 1 to 2 µg/mL | MIC Enterococcus faecalis (GC 6189) (Enterococcus sp.): 1 to 2 µg/mL | MIC Streptococcus pneumoniae (ATCC 6301) (Streptococcus sp.): <0.03 µg/mL | MIC Streptococcus pneumoniae (GC 1894) (Streptococcus sp.): <0.03 µg/mL | MIC Streptococcus pyogenes (GC 4563) (Streptococcus sp.; strain GC 4563): <0.03 µg/mL | MIC Streptococcus agalactiae (GC 4564) (Streptococcus sp.; strain GC 4564): <0.03 µg/mL | MIC Streptococcus pneumoniae (GC 4565) (Streptococcus sp.): <0.03 µg/mL | Anatomical Pathology (Day 10), Heart [1]: 0 | median effective dose (ED50), Streptococcus pneumoniae (GC 1894) [3]: 0.07 mg/kg
